A word on the inhibition: it is the relative decrease from the control value, in per cent.

Molecules are shown by their SMILES.

Data set [1] is filed under the species Mus musculus. The experiment in a line: Cytotoxicity against Balb/c mouse B cells assessed as decrease in cell viability at 100 uM after 48 hrs by MTT assay. Format: toxicity, cell-based. (In general: Tetrazolium assays rely on reduction of a dye to a coloured formazan, in cell work by metabolically active cells.)
The species named for data set [2] is Mus musculus. The data set can be described thus: Cytotoxicity against Balb/c mouse B cells assessed as decrease in cell viability at 10 uM after 48 hrs by MTT assay. Format: toxicity, cell-based.
Data set [3] is filed under the species Mus musculus. The data set can be described thus: Cytotoxicity against Balb/c mouse B cells assessed as decrease in cell viability at 1 uM after 48 hrs by MTT assay. The class given is toxicity, cell-based.
The species entered for data set [4] is Mus musculus. The experiment in a line: Cytotoxicity against Balb/c mouse T cells assessed as decrease in cell viability at 100 uM after 48 hrs by MTT assay. Format: toxicity, cell-based.
For data set [5], the species on record is Mus musculus. The experiment in a line: Cytotoxicity against Balb/c mouse T cells assessed as decrease in cell viability at 10 uM after 48 hrs by MTT assay. The class given is toxicity, cell-based.
The species entered for data set [6] is Mus musculus. The data set can be described thus: Cytotoxicity against Balb/c mouse T cells assessed as decrease in cell viability at 1 uM after 48 hrs by MTT assay. Format: toxicity, cell-based.
Data set [7] can be described thus: Immunosuppressive activity in Balb/c mouse T cells assessed as inhibition of ConA-induced cell proliferation at 100 uM after 48 hrs by MTT assay relative to control. Format: functional.
Data set [8] in a line: Immunosuppressive activity in Balb/c mouse B cells assessed as inhibition of LPS-induced cell proliferation at 100 uM after 48 hrs by MTT assay relative to control. The class given is functional.
Data set [9] in a line: Immunosuppressive activity in Balb/c mouse B cells assessed as inhibition of LPS-induced cell proliferation at 10 uM after 48 hrs by MTT assay relative to control. Format: functional.
Data set [10] can be described thus: Immunosuppressive activity in Balb/c mouse B cells assessed as inhibition of LPS-induced cell proliferation at 1 uM after 48 hrs by MTT assay relative to control. Format: functional.
The subject of another data set is T-cell. The data set can be described thus: Immunosuppressive activity in Balb/c mouse T cells assessed as inhibition of ConA-induced cell proliferation after 48 hrs by MTT assay relative to control. Format: functional, cell-based.
A short description of data set [11]: Immunosuppressive activity in Balb/c mouse T cells assessed as inhibition of ConA-induced cell proliferation at 10 uM after 48 hrs by MTT assay relative to control. Format: functional.
Data set [12] is described as follows: Immunosuppressive activity in Balb/c mouse T cells assessed as inhibition of ConA-induced cell proliferation at 1 uM after 48 hrs by MTT assay relative to control. Format: functional.
In the next data set the test system is B. The experiment in a line: Immunosuppressive activity in Balb/c mouse B cells assessed as inhibition of LPS-induced cell proliferation after 48 hrs by MTT assay relative to control. The class given is functional, cell-based.

As for `CCCCn1cc(COC(=O)[C@H](C)[C@@H]2CCc3c(C)cc(OC(C)=O)c(C)c3C2)nn1`, the Activity entry is given as “Toxic” in the data set filed under Mus musculus [1]; “Toxic” in the data set filed under Mus musculus [2]; “Non-Toxic” in the data set filed under Mus musculus [3]; “Toxic” in the data set filed under Mus musculus [4]; “Toxic” in the data set listed under Mus musculus [5]; “Non-Toxic” in the data set listed under Mus musculus [6]. The inhibition at 100 µM amounted to 41.3% in data set [7] and 44.2% in data set [8]. For the same compound, the inhibition at 10 µM is 29.9% in [9] and 24% in data set [11]. In addition, the inhibition at 1 µM came to 31.2% in [10] and 21.4% in data set [12]. Further, the inhibition entry in the data set on T-cell and in the data set with B was “Dose-dependent effect” throughout.

As to `CC(=O)Oc1cc(C)c2c(c1C)C[C@H]([C@@H](C)C(=O)OCc1cn(-c3ccc(Cl)c(Cl)c3)nn1)CC2`, the Activity result in the data set filed under Mus musculus [1] is “Toxic”; in the data set listed under Mus musculus [2], “Toxic”; in the data set listed under Mus musculus [3] it was “Non-Toxic”; in the data set filed under Mus musculus [4] it was “Toxic”; in the data set filed under Mus musculus [5], “Toxic”; in the data set listed under Mus musculus [6] it was “Non-Toxic”. Besides, the inhibition at 100 µM was found to be 11.8% in data set [7] and 49.5% in data set [8]. The inhibition at 10 µM stood at 50.5% in [9] and 18.4% in data set [11]. The inhibition at 1 µM in data set [10] amounted to 39%; in data set [12], 31.6%. For the same compound, the inhibition entry in the data set with T-cell and in the data set with B was “Dose-dependent effect” in each case.

On to `COc1cc(-n2cc(COC(=O)[C@H](C)[C@@H]3CCc4c(C)cc(OC(C)=O)c(C)c4C3)nn2)cc(OC)c1OC`, for which the Activity entry in the data set filed under Mus musculus [1] is listed as “Non-Toxic”; in the data set filed under Mus musculus [2], “Toxic”; in the data set listed under Mus musculus [3], “Toxic”; in the data set filed under Mus musculus [4], “Non-Toxic”; in the data set filed under Mus musculus [5] it was “Toxic”; in the data set listed under Mus musculus [6] it was “Toxic”. Moreover, the inhibition at 100 µM in data set [7] was 83.3%; in data set [8] it was 89.3%. Also, the inhibition at 10 µM in [9] amounted to 22.1%; in [11], 37.1%. Further, the inhibition at 1 µM came to 42% in data set [10] and 45.5% in [12]. For the same compound, the inhibition result in the data set with T-cell and with B was “Dose-dependent effect” each time.

On to `CC(=O)Oc1cc(C)c2c(c1C)C[C@H]([C@@H](C)C(=O)OCc1cn(-c3cccnc3Cl)nn1)CC2`, for which the Activity result in the data set listed under Mus musculus [1] is “Non-Toxic”; in the data set listed under Mus musculus [2] it was “Toxic”; in the data set listed under Mus musculus [3], “Toxic”; in the data set filed under Mus musculus [4], “Non-Toxic”; in the data set listed under Mus musculus [5], “Toxic”; in the data set listed under Mus musculus [6] it was “Toxic”. The figures for the inhibition at 100 µM in [7] and in data set [8] were 17.6% and 22.5%, respectively. In addition, the results for the inhibition at 10 µM in data set [9] and in data set [11] were 15.4% and 25%, respectively. In addition, the inhibition at 1 µM was determined as 30.8% in data set [10] and 5.88% in data set [12]. In addition, the inhibition result with T-cell and in the data set with B was “Dose-dependent effect” throughout.

Take `CC(=O)Oc1cc(C)c2c(c1C)[C@@H]1OC(=O)[C@@H](C)[C@@H]1CC2`: the Activity result is “Non-Toxic” in the data set filed under Mus musculus [1]; “Toxic” in the data set filed under Mus musculus [2]; “Toxic” in the data set filed under Mus musculus [3]; “Non-Toxic” in the data set filed under Mus musculus [4]; “Toxic” in the data set filed under Mus musculus [5]; “Toxic” in the data set listed under Mus musculus [6]. For the same compound, the inhibition at 100 µM came out at 75% in data set [7] and 70% in data set [8]. The results for the inhibition at 10 µM in [9] and in [11] were 44.3% and 49.2%, respectively. The inhibition at 1 µM in [10] was found to be 61.8%; in data set [12], 47.7%. In addition, the inhibition result in the data set on T-cell and in the data set with B was “Dose-dependent effect” each time.

On to `C#CCOC(=O)[C@H](C)[C@@H]1CCc2c(C)cc(OC(C)=O)c(C)c2C1`, for which the Activity entry was “Non-Toxic” in the data set filed under Mus musculus [1]; “Toxic” in the data set listed under Mus musculus [2]; “Non-Toxic” in the data set listed under Mus musculus [3]; “Non-Toxic” in the data set filed under Mus musculus [4]; “Toxic” in the data set listed under Mus musculus [5]; “Non-Toxic” in the data set listed under Mus musculus [6]. The inhibition at 100 µM is 71.5% in [7] and 69.7% in [8]. The inhibition at 10 µM in data set [9] is 59.3%; in data set [11], 51.2%. Further, the results for the inhibition at 1 µM in data set [10] and in [12] were 57.8% and 41.7%, respectively. Also, the inhibition result in the data set with T-cell and in the data set with B was “Dose-dependent effect” in each case.

For `CC(=O)Oc1cc(C)c2c(c1C)C[C@H]([C@@H](C)C(=O)OCc1cn(-c3ccccc3Cl)nn1)CC2`, the Activity entry in the data set filed under Mus musculus [1], in the data set listed under Mus musculus [2], in the data set listed under Mus musculus [3], in the data set filed under Mus musculus [4], in the data set listed under Mus musculus [5] and in the data set filed under Mus musculus [6] was “Toxic” each time. For the same compound, the figures for the inhibition at 100 µM in data set [7] and in data set [8] were 30.6% and 37.7%, respectively. Besides, the inhibition at 10 µM in [9] was 30.3%; in data set [11] it was 17.6%. For the same compound, the inhibition at 1 µM in [10] is 33.7%; in data set [12] it was 5.55%. Also, the inhibition result with T-cell and in the data set with B was “Dose-dependent effect” throughout.

As for `CC(=O)Oc1cc(C)c2c(c1C)C[C@H]([C@@H](C)C(=O)OCc1cn(-c3ccc(CO)cc3)nn1)CC2`, the Activity result in the data set listed under Mus musculus [1], in the data set filed under Mus musculus [2], in the data set listed under Mus musculus [3], in the data set listed under Mus musculus [4], in the data set listed under Mus musculus [5] and in the data set listed under Mus musculus [6] was “Toxic” throughout. The values for the inhibition at 100 µM in [7] and in data set [8] were 5.88% and 11.5%, respectively. The inhibition at 10 µM came out at 35.7% in data set [9] and 37.5% in data set [11]. For the same compound, the inhibition at 1 µM in data set [10] and in data set [12] was 40% in each case. In addition, the inhibition result in the data set with T-cell and in the data set on B was “Dose-dependent effect” throughout.

`CCCCCn1cc(COC(=O)[C@H](C)[C@@H]2CCc3c(C)cc(OC(C)=O)c(C)c3C2)nn1`: the Activity entry in the data set filed under Mus musculus [1], in the data set filed under Mus musculus [2], in the data set filed under Mus musculus [3], in the data set filed under Mus musculus [4], in the data set filed under Mus musculus [5] and in the data set listed under Mus musculus [6] was “Toxic” in each case. The inhibition at 100 µM in data set [7] is 30.6%; in data set [8], 43.1%. The inhibition at 10 µM was 41.9% in [9] and 27.6% in data set [11]. The inhibition at 1 µM is 42.4% in data set [10] and 15.6% in data set [12]. Moreover, the inhibition entry in the data set with T-cell and in the data set with B was “Dose-dependent effect” in each case.

Turning to `CC(=O)Oc1cc(C)c2c(c1C)C[C@H]([C@@H](C)C(=O)OCc1cn(-c3ccccc3F)nn1)CC2`, the Activity result in the data set listed under Mus musculus [1], in the data set filed under Mus musculus [2], in the data set filed under Mus musculus [3], in the data set listed under Mus musculus [4], in the data set filed under Mus musculus [5] and in the data set filed under Mus musculus [6] was “Non-Toxic” in each case. Also, the inhibition at 100 µM is 5.88% in data set [7] and 39.6% in [8]. In addition, the figures for the inhibition at 10 µM in data set [9] and in data set [11] were 34.6% and 11.8%, respectively. The inhibition at 1 µM in data set [10] came to 50.5%; in data set [12] it was 53.7%. The inhibition entry with T-cell and in the data set on B was “Dose-dependent effect” each time.

Regarding `CC(=O)Oc1cc(C)c2c(c1C)C[C@H]([C@@H](C)C(=O)OCc1cn(-c3cccc([N+](=O)[O-])c3)nn1)CC2`, the Activity entry is reported as “Non-Toxic” in the data set listed under Mus musculus [1]; “Toxic” in the data set filed under Mus musculus [2]; “Toxic” in the data set listed under Mus musculus [3]; “Non-Toxic” in the data set listed under Mus musculus [4]; “Toxic” in the data set filed under Mus musculus [5]; “Toxic” in the data set filed under Mus musculus [6]. Further, the inhibition at 100 µM amounted to 10.2% in data set [7] and 24.6% in [8]. Moreover, the inhibition at 10 µM in [9] was 26.9%; in data set [11] it was 30.6%. Further, the figures for the inhibition at 1 µM in data set [10] and in data set [12] were 29.1% and 45.4%, respectively. Also, the inhibition result in the data set on T-cell and with B was “Dose-dependent effect” in each case.

For the origin of these results see ChEMBL document CHEMBL3853300, “Synthesis of α-santonin derived acetyl santonous acid triazole derivatives and their bioevaluation for T and B-cell proliferation” (Eur J Med Chem, 2016).
